Measured values: patent US10751322B2, “Indole-3-aldehyde for treating dysreactive immune disorders” (Universita′ degli Studi di Perugia, priority 2013, dated 2020)

Key:
AhR = target: T1, AhR (Mus musculus, UniProt P30561); assay: AhR-responsive luciferase reporter test of agonist activity; format: cell-based; conditions: cell line H1L1.1c2, FIG. 1
T1 construct: endogenous in cells; host or cells: H1L1.1c2
Procedure: For this test, an AhR-responsive cell line was stimulated (cell line H1L1.1c2 containing a luciferase of firefly sensitive to stably transfected AhR) with IAld, indole-3-acetaldehyde (IAAld), indole-3-acetic acid (IAA) and indole-3-lactic acid (ILA). In a way well known to the technician in the field, the agonist activity was determined by means of luciferase test, and in FIG. 1 the luciferase activity of the different ligands, representative of such agonist activity, has been indicated, on the ordinate, as a percentage of the response induced by 50 nM of formylindolo[3,2-b]carbazole (FICZ) according to the ligand dose, expressed in logarithmic scale on the abscissa.

[1] = tested on: genes Cyp1A1, Cyp1B1, IL-22, IL-10 and IDO1; format: cell-based, mice
Procedure: (§1) For these verifications, cultures were set up of mice stomachs and colons stimulated with 1 or 100 mM of IAld for 24 hours in vitro before determining the transcription of the above indicated genes by means of polymerase reaction. The histograms A-E show the activation (expressed in terms of the number of times the mRNA increases) of the genes Cyp1A1, Cyp1B1, IL-22, IL-10 and IDO1 respectively in the stomach (top diagram) and in the colon (bottom diagram) as a consequence of the stimulation. […] For comparison, also indicated are the values in the absence of stimulation with IAld. […] To assess the therapeutic effect in treating candidiasis, two experimental models were used of infection by C. albicans obtained by administration of the fungus intragastrically (by means of a tube) and intravaginally (by means of tip) respectively. To assess the therapeutic effect in treating colitis, the model used requires the administration of an irritant (dextran sodium sulphate, DDS), through the mouth. The assessment was made on mice C57BL/6 and on mice AhR^−/−, i.e., mice from which the AhR receptor had been artificially removed. The treatment with IAld lasted for 7 days.

Candida albicans [2] = assay: Infection by C. albicans, fungus given intragastrically; format: in vivo, mice; conditions: 18 mg/kg intragastrically daily, 7 days
Procedure: as §1

Candida albicans [3] = assay: Infection by C. albicans, fungus given intravaginally; format: in vivo, mice; conditions: 18 mg/kg intragastrically daily, 7 days
Procedure: as §1

colitis = assay: Colitis model induced by dextran sodium sulphate through the mouth; format: in vivo, mice; conditions: 18 mg/kg intragastrically daily, 7 days
Procedure: as §1

T1 sequence (P30561 10-805 limits assumed): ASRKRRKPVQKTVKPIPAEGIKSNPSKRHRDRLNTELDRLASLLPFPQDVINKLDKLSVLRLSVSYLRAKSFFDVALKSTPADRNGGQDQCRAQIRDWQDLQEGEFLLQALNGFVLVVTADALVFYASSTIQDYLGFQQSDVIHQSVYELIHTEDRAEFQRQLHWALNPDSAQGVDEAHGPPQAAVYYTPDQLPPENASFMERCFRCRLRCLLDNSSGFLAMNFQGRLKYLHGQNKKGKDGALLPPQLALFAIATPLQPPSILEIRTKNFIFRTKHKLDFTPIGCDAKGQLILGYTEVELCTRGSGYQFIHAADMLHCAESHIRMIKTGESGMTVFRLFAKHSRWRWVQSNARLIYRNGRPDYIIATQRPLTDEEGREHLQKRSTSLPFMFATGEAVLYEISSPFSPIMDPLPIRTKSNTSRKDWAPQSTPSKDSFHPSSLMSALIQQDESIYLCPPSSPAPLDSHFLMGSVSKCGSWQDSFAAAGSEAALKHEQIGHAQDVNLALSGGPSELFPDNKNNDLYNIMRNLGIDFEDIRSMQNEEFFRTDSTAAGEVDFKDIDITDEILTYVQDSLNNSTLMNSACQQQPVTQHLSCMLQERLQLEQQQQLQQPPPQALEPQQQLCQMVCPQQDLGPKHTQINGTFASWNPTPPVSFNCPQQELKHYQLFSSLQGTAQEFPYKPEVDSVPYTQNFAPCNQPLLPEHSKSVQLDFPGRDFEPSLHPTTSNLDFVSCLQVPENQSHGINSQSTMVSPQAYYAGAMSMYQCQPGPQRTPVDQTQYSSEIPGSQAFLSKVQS
T1 sequence (P11499 whole entry partner): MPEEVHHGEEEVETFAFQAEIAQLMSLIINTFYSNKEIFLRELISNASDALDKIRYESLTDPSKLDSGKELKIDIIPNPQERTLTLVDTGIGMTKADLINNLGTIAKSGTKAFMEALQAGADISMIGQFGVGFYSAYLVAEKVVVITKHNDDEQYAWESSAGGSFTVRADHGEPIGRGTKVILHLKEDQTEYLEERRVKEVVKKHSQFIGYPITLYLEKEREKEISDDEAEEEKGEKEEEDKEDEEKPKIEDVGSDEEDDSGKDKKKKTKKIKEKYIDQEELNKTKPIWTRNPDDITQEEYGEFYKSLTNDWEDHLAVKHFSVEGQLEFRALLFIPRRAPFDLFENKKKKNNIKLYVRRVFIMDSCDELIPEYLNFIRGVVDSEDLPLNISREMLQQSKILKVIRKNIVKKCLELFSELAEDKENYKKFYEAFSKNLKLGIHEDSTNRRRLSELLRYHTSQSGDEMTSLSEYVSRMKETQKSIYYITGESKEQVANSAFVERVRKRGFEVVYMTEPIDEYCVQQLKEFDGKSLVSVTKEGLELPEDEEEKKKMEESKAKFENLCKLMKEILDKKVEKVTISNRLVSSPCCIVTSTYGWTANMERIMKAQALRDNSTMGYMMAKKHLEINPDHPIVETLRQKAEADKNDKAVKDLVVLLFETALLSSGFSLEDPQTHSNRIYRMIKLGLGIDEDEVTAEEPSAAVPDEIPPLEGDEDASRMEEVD
T1 sequence (O08915 whole entry partner): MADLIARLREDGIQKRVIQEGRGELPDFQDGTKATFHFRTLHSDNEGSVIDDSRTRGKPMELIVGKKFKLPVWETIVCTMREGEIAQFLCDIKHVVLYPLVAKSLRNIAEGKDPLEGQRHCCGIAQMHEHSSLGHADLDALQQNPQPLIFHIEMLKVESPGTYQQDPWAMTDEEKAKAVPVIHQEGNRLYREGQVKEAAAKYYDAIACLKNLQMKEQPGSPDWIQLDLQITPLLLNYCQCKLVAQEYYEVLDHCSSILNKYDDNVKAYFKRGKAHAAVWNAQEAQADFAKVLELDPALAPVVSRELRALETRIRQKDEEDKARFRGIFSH

In the case of `O=Cc1c[nH]c2ccccc12` [IAld, IH-indole-3-carbaldehyde], the “dose dependence of AhR-agonist activity” value (AhR) is reported as “closely dependent on the dose”, the “AhR-agonist activity (luciferase activity as a percentage of the response induced by 50 nM FICZ)” value (AhR; compared with IAAld, ILA and IAA) is reported as “substantially comparable to that of IAAld and is superior to that of ILA and IAA” and the “dose dependence of gene activation” value [1] is reported as “strongly dependent on the dose”. The “therapeutic effect in mice AhR−/− versus C57BL/6” value (Candida albicans [2]; gastric candidiasis, mice AhR−/−) was “only to be found in mice C57BL/6 and not in mice AhR^−/−”, the “growth of Candida albicans (CFU) at stomach level” value (Candida albicans [2]; mice C57BL/6, FIG. 3 diagram A) was “significant reduction in growth” and the “activation of IL-22 and IL-10 in the stomach” value (Candida albicans [2]; mice C57BL/6, FIG. 3 histogram B) was “contemporaneous activation of IL-22 and IL-10”. For the same compound, the “growth of Candida albicans (CFU) at vagina level” value (Candida albicans [3]; mice C57BL/6, FIG. 3 diagram C) was “significant reduction in growth”, the “activation of IL-22 and IL-10 in the vagina” value (Candida albicans [3]; mice C57BL/6, FIG. 3 histogram B (so in the source)) was “contemporaneous activation of IL-22 and IL-10” and the “therapeutic effect in mice AhR−/− versus C57BL/6” value (Candida albicans [3]; vaginal candidiasis, mice AhR−/−) was “only to be found in mice C57BL/6 and not in mice AhR^−/−”. The “therapeutic effect in mice AhR−/− versus C57BL/6” value (colitis; colitis, mice AhR−/−) was “only to be found in mice C57BL/6 and not in mice AhR^−/−”, the “percentage variation in body weight” value (colitis; mice C57BL/6 with colitis, FIG. 3 graph E) was “prevention of the reduction in body weight” and the “degree of tissue inflammation (colon histopathology)” value (colitis; mice C57BL/6 with colitis, FIG. 3 photographs F) was “improvement in the degree of tissue inflammation”. For the same compound, the “cells producing IL-22 (immunofluorescence)” value (colitis; mice C57BL/6 with colitis, FIG. 3 photographs G) was “expansion of cells producing IL-22”.
